Assay [1] has as its system INS-1E cells. Type of assay: cell-based, rat.
The subject of assay [2] is tonic K+ channel activity in INS-1E cells. Put plainly: cells. In kind it is cell-based, rat.
For a further assay, the system named is HeLa cells. Put plainly: cells. In kind it is cell-based.
Assay [3] deals with INS-1E cells. Kind of assay: cells. Conditions: for EC50: Rattus norvegicus, INS-1E. In kind it is cell-based, rat.
A further assay has as its system SW480. Put plainly: cells. Type of assay: cell-based.
Another assay relates to HT-29. Put plainly: cells. In kind it is cell-based. Conditions: assay number 28; basal.
In the next assay the test system is RKO. Put plainly: cells. In kind it is cell-based. Conditions: assay number 29; basal.
A further assay has as its system HCT116. Put plainly: cells. In kind it is cell-based. Conditions: basal.
The next assay has as its system Colo320. Put plainly: cells. Type of assay: cell-based. Conditions: assay number 27; basal.
A further assay has as its system DLD-1. Kind of assay: cells. Type of assay: cell-based.
Another assay has as its system SNU-C1. Put plainly: cells. Type of assay: cell-based. Conditions: assay number 30; basal.
The subject of assay [4] is HCT116 cells treated with a GSK3β inhibitor. Kind of assay: cells. Type of assay: cell-based. Conditions: Homo sapiens, HCT-116, read-out: HCT-116 (GSK3β) viab. IC50; Table 2; GSK3β inhibitor LY2090314 20 nM; 72 h, Cell TiterGlo; 20 coded. (In general: Cellular ATP, detected with luciferase, serves as a proxy for viable cell number.)
For assay [5], the system named is nuclear β-catenin in C2C12 cells. Put plainly: cells. Type of assay: cell-based. Conditions: Mus musculus, C2C12, Table 2; C2C12; […]; 20 / 20.1 coded; read-out: Wnt pot. EC50.
Assay [6] deals with endothelial tube formation in co-cultures of ECFCs and ADSCs treated with VEGF. Kind of assay: cells. Type of assay: cell-based, human. Conditions: Homo sapiens, Table 2; primary assay tube area; 20 = no response in concentration-response, 20.1 = inactive in single concentration testing; read-out: Anti-Angio IC50.
The next assay relates to NCI-H716 cells. Kind of assay: cells. Type of assay: cell-based, Human. Conditions: Homo sapiens, NCI-H716; read-out: GLP1 sec. EC50.
Setting [7] is: assay number 10, 0.1 mM glucose.

Like-named read-outs stand apart in the source and are kept apart here.

This is an account of results in publication PMC4503722, “Novel Phenotypic Outcomes Identified for a Public Collection of Approved Drugs from a Publicly Accessible Panel of Assays” (PLoS ONE, 2015).
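For 5mMGluc INS1E SecretionMod IC50/EC50 in this document: secreted insulin quantified by homogeneous immunoassay.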
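For IC50/EC50, 5mMGluc INS1E SecretionMod (assay number 8) in this document: secreted insulin quantified by homogeneous immunoassay.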

Take `Cc1ccc(S(=O)(=O)NC(=O)NN2CC3CCCC3C2)cc1` (centres unmarked) [NCGC00095107-09]: in the assay on INS-1E cells [1] (assay number 9, 0.1 mM glucose), the “0.1mMGluc_INS1E SecretionMod Act IC50/EC50” value is over 33.33 µM. Besides, in [2] (setting [7]), the “0.1mMGluc_INS1E FluxOR IC50/EC50” value is reported as 0.6403 µM. The “Hela CellCycMod PI 2N IC50/EC50” value in the assay with HeLa cells (assay number 14, 2N) is over 10 µM. In addition, the “Hela CellCycMod PI S Phase IC50/EC50” value with HeLa cells (assay number 15, S phase) is listed as over 10 µM. Besides, the “Hela CellCycMod PI 4N IC50/EC50” value in the assay with HeLa cells (assay number 16, 4N) is over 10 µM. Further, in the assay on HeLa cells (assay number 17, MI), the “Hela CellCycMod PI MI IC50/EC50” value was over 10 µM. In addition, the “Hela CellCycMod PI Cell Number IC50/EC50” value in the assay on HeLa cells (assay number 18, cell number) is over 10 µM. In addition, in the assay with INS-1E cells [3] (assay number 8, 5 mM glucose), the “5mMGluc_INS1E SecretionMod IC50/EC50” value is given as 1.834 µM.

In the case of `CCN(CC)CCOc1ccccc1C(=O)CCc1ccccc1` [NCGC00160484-02], the “IC50/EC50, 0.1mMGluc_INS1E SecretionMod Act (assay number 9)” value in the assay with INS-1E cells [1] (0.1 mM glucose) is recorded as over 33.33 µM. Besides, the “IC50/EC50, 0.1mMGluc_INS1E FluxOR (assay number 10)” value in [2] (0.1 mM glucose) was 6.739 µM. For the same molecule, the “IC50/EC50, Hela CellCycMod PI 2N (assay number 14)” value in the assay on HeLa cells (2N) is reported as over 10 µM. Besides, in the assay on HeLa cells (4N), the “IC50/EC50, Hela CellCycMod PI 4N (assay number 16)” value is recorded as over 10 µM. Moreover, in the assay with HeLa cells (Cell Number), the “IC50/EC50, Hela CellCycMod PI Cell Number (assay number 18)” value is over 10 µM. For the same molecule, the “IC50/EC50, Hela CellCycMod PI MI (assay number 17)” value in the assay with HeLa cells (MI) is given as over 10 µM. Also, in the assay with HeLa cells (S Phase), the “IC50/EC50, Hela CellCycMod PI S Phase (assay number 15)” value is over 10 µM. In addition, the “IC50/EC50, 5mMGluc_INS1E SecretionMod (assay number 8)” value in the assay on INS-1E cells [3] (5 mM glucose) is recorded as 3.892 µM.

Regarding `CCN(CC)CCCN(c1ccccc1)C1Cc2ccccc2C1.Cl` [NCGC00167576-02], the “0.1mMGluc_INS1E SecretionMod Act IC50/EC50” value in the assay with INS-1E cells [1] (assay number 9, 0.1 mM glucose) is listed as over 33.33 µM. For the same molecule, in assay [2] (setting [7]), the “0.1mMGluc_INS1E FluxOR IC50/EC50” value was determined as 14.9742 µM. Besides, the “5mMGluc_INS1E SecretionMod IC50/EC50” value in the assay with INS-1E cells [3] (assay number 8, 5 mM glucose) worked out at 7.1279 µM.

Turning to `CC(C)C1CCC(C(=O)N[C@H](Cc2ccccc2)C(=O)O)CC1` (some centres unmarked) [NCGC00178741-03], the “0.1mMGluc_INS1E SecretionMod Act IC50/EC50” value in the assay on INS-1E cells [1] (assay number 9, 0.1 mM glucose) was over 33.33 µM. Besides, the “0.1mMGluc_INS1E FluxOR IC50/EC50” value in assay [2] (setting [7]) amounted to 0.2515 µM. For the same molecule, the “5mMGluc_INS1E SecretionMod IC50/EC50” value with INS-1E cells [3] (assay number 8, 5 mM glucose) is listed as 7.074 µM.

As to `CC1CC(=O)NN=C1c1ccc(NCC(C)(C)NCC(O)COc2cc(Cl)ccc2C#N)cc1` (centres unmarked) [NCGC00249416-01], the “0.1mMGluc_INS1E SecretionMod Act IC50/EC50” value in the assay on INS-1E cells [1] (assay number 9, 0.1 mM glucose) is recorded as over 33.33 µM. Also, the “0.1mMGluc_INS1E FluxOR IC50/EC50” value in assay [2] (setting [7]) is on record as 84.8421 µM. The “5mMGluc_INS1E SecretionMod IC50/EC50” value with INS-1E cells [3] (assay number 8, 5 mM glucose) was found to be 15.1547 µM.

Regarding `CN(C)CCOC(c1ccccc1)c1ccc(Br)cc1` (centres unmarked) [NCGC00249891-01], in the assay with SW480 (assay number 24, basal), the “Basal_Viability ATP SW480 IC50/EC50” value is reported as over 20 µM. Further, the “Basal_Viability ATP HT-29 IC50/EC50” value in the assay with HT-29 is recorded as 17.0256 µM. The “0.1mMGluc_INS1E SecretionMod Act IC50/EC50” value in the assay with INS-1E cells [1] (assay number 9, 0.1 mM glucose) was over 33.33 µM. Also, the “0.1mMGluc_INS1E FluxOR IC50/EC50” value in assay [2] (setting [7]) is 10.9665 µM. For the same molecule, the “Basal_Viability ATP RKO IC50/EC50” value in the assay on RKO is given as over 20 µM. Moreover, the “Basal_Viability ATP HCT116 IC50/EC50” value in the assay with HCT116 (assay number 25) was over 20 µM. For the same molecule, in the assay on Colo320, the “Basal_Viability ATP Colo 320 IC50/EC50” value is on record as over 20 µM. For the same molecule, the “Basal_Viability ATP DLD-1 IC50/EC50” value with DLD-1 (assay number 23, basal) is over 20 µM. The “Hela CellCycMod PI 2N IC50/EC50” value in the assay on HeLa cells (assay number 14, 2N) was over 10 µM. For the same molecule, the “Hela CellCycMod PI S Phase IC50/EC50” value in the assay with HeLa cells (assay number 15, S phase) is given as over 10 µM. Further, in the assay on HeLa cells (assay number 16, 4N), the “Hela CellCycMod PI 4N IC50/EC50” value was over 10 µM. In addition, the “Hela CellCycMod PI MI IC50/EC50” value in the assay on HeLa cells (assay number 17, MI) is over 10 µM. Also, the “Hela CellCycMod PI Cell Number IC50/EC50” value with HeLa cells (assay number 18, cell number) is reported as over 10 µM. In the assay with INS-1E cells [3] (assay number 8, 5 mM glucose), the “5mMGluc_INS1E SecretionMod IC50/EC50” value was 2.767 µM. Also, the “Basal_Viability ATP SNU-C1 IC50/EC50” value in the assay on SNU-C1 worked out at 3.0987 µM.

`Cc1ccc(CCn2c3c(c4cc(Cl)ccc42)CN(C)CC3)cn1` [NCGC00253726-01]: in the assay with INS-1E cells [1] (assay number 9, 0.1 mM glucose), the “0.1mMGluc_INS1E SecretionMod Act IC50/EC50” value was over 33.33 µM. The “0.1mMGluc_INS1E FluxOR IC50/EC50” value in assay [2] (setting [7]) was found to be 39.9057 µM. For the same molecule, in the assay with HeLa cells (assay number 14, 2N), the “Hela CellCycMod PI 2N IC50/EC50” value is over 10 µM. In addition, the “Hela CellCycMod PI S Phase IC50/EC50” value in the assay on HeLa cells (assay number 15, S phase) is recorded as over 10 µM. In addition, in the assay on HeLa cells (assay number 16, 4N), the “Hela CellCycMod PI 4N IC50/EC50” value is on record as over 10 µM. Moreover, in the assay on HeLa cells (assay number 17, MI), the “Hela CellCycMod PI MI IC50/EC50” value is over 10 µM. For the same molecule, the “Hela CellCycMod PI Cell Number IC50/EC50” value with HeLa cells (assay number 18, cell number) is listed as over 10 µM. In addition, the “5mMGluc_INS1E SecretionMod IC50/EC50” value in the assay with INS-1E cells [3] (assay number 8, 5 mM glucose) was 4.201 µM.

In the case of `CC(CC1c2ccccc2CCc2ccccc21)CN(C)C` (centres unmarked) [NCGC00274277-01], the “0.1mMGluc_INS1E SecretionMod Act IC50/EC50” value in the assay with INS-1E cells [1] is over 33.33 µM. The “0.1mMGluc_INS1E FluxOR IC50/EC50” value in [2] was 19.9984 µM. Also, in the assay on HeLa cells, the “Hela CellCycMod PI 2N IC50/EC50” value is over 10 µM, the “Hela CellCycMod PI 4N IC50/EC50” value is over 10 µM, the “Hela CellCycMod PI Cell Number IC50/EC50” value is reported as over 10 µM and the “Hela CellCycMod PI MI IC50/EC50” value is given as over 10 µM. In addition, in the assay with HeLa cells, the “Hela CellCycMod PI S Phase IC50/EC50” value is given as over 10 µM. Further, the “5mMGluc_INS1E SecretionMod IC50/EC50” value with INS-1E cells [3] came out at 3.6382 µM.

The term IC50 denotes the concentration that gives 50% inhibition. `CCN(CCCCOC(=O)c1ccc(OC)c(OC)c1)C(C)Cc1ccc(OC)cc1` (centres unmarked) [mebeverine, reference compound]: the IC50 in assay [4] was over 20 µM; with SW480 (Homo sapiens, SW480, 72 h, Table 2, 72 h, Cell TiterGlo, non-adherent, 20 coded, read-out: SW480 viab. IC50), over 20 µM; in assay [2] (Rattus norvegicus, INS-1E, 0.1 mM glucose, thallium flux, read-out: K+ channel assay IC50), 1.7 µM; in the assay on HCT116 (Homo sapiens, HCT-116, 72 h, read-out: HCT-116 viab. IC50, Table 2, 72 h, Cell TiterGlo, non-adherent, 20 coded) it was over 20 µM; with DLD-1 (Homo sapiens, DLD-1, 72 h, Table 2, 72 h, Cell TiterGlo, non-adherent, 20 coded, read-out: DLD-1 viab. IC50), over 20 µM; in assay [6] it was over 10 µM. Further, the EC50 in [5] was over 10 µM; with HeLa cells (Homo sapiens, HeLa, IC50 / EC50, HeLa, read-out: CellCycle G2/M), over 10 µM; in the assay on INS-1E cells [3] (read-out: Ins. sec. EC50), 2 µM; in the assay on INS-1E cells [3] (IC50 / EC50, read-out: Insulin Secretion), 1.95 µM; with NCI-H716 cells, over 10 µM. The “G2/M IC50 / EC50” value with HeLa cells was 20 (values shown as 20 indicate that the compound was tested in concentration-response and showed no response at the highest concentration tested (e.g. IC50 > 20 μM)).
